Measured values reported in US10968225B2, “Compounds and compositions for the treatment of cystic fibrosis” (Fondazione Istituto Italiano Di Tecnologia, priority 2017, dated 2021).

biological target: T1, mutant CFTR (Homo sapiens, UniProt P13569, DEL508-508); test: Fluorescence (HS-YFP) assay for CFTR activity, corrector assay; format: cell-based; details: CFBE41o- and FRT cells with stable expression of mutant CFTR, read-out: activity (EC50)
T1 construct: expressed in transfected cells
T1 sequence (P13569 with tags, fused parts or gaps DEL508-508): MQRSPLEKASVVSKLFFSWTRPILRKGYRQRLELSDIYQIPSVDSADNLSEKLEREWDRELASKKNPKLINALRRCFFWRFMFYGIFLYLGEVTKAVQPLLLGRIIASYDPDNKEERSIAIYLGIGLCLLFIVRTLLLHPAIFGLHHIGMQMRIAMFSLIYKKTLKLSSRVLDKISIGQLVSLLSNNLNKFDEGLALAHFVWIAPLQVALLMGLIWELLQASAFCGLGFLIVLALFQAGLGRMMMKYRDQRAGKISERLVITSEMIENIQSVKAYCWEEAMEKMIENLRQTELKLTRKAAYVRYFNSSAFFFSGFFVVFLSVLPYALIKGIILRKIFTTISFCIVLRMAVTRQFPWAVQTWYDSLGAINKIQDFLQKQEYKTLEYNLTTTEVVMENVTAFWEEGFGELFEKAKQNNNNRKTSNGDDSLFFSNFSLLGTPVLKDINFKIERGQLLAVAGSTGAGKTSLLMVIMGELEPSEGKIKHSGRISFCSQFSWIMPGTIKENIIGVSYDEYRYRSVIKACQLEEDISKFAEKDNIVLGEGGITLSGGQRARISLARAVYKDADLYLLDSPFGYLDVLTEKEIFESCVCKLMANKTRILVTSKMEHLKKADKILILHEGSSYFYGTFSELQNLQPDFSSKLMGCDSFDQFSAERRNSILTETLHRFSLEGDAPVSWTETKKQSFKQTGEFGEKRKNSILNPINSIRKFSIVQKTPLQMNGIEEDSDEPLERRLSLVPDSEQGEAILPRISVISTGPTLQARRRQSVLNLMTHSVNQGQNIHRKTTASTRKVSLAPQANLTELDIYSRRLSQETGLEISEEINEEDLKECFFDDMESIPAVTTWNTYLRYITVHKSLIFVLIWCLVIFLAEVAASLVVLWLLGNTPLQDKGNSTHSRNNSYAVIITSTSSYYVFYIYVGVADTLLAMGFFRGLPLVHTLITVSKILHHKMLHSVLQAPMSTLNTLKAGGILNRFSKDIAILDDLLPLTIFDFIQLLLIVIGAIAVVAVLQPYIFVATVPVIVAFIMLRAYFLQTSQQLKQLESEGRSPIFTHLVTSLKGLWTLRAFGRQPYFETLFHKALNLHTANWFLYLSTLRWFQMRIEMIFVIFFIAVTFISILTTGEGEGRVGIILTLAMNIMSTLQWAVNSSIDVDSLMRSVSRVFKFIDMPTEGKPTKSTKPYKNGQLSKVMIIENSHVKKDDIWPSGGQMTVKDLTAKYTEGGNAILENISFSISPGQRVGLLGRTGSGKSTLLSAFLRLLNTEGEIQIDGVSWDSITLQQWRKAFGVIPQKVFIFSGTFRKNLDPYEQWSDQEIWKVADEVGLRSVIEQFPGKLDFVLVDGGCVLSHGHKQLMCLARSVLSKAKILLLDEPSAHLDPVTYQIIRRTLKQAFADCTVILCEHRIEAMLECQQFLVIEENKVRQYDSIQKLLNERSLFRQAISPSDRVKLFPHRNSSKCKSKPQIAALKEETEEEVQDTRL

Row | Structure (SMILES) | EC50
1 | CN(C(=O)c1cccc(-n2nc(C(F)(F)F)c3c2C(Oc2cccc(C(=O)O)c2)CCC3)c1)c1ccc2c(c1)OC(F)(F)O2 (stereo not shown) [Compound 170, 3-[[1-[3-[(2,2-Difluoro-1,3-benzodioxol-5-yl)-methyl-carbamoyl]phenyl]-3-(trifluoromethyl)-4,5,6,7-tetrahydroindazol-7-yl]oxy]benzoic acid] | < 1 µM
2 | Cc1nc2ccc(N(C)C(=O)c3cccc(-n4nc(C(F)(F)F)c5c4C(Oc4ccc(C(=O)O)cc4)CCC5)c3)cn2n1 (stereo not shown) [Compound 172, 4-[[1-[3-[Methyl-(2-methyl-[1,2,4]triazolo[1,5-a]pyridin-6-yl)carbamoyl]phenyl]-3-(trifluoromethyl)-4,5,6,7-tetrahydroindazol-7-yl]oxy]benzoic acid] | < 1 µM
3 | Cc1cc2ncc(N(C)C(=O)c3cccc(-n4nc(C(F)(F)F)c5c4C(Oc4ccc(C(=O)O)cc4)CCC5)c3)cn2n1 (stereo not shown) [Compound 174, 4-[[1-[3-[Methyl-(2-methylpyrazolo[1,5-a]pyrimidin-6-yl)carbamoyl]phenyl]-3-(trifluoromethyl)-4,5,6,7-tetrahydroindazol-7-yl]oxy]benzoic acid] | < 1 µM
4 | Cc1cc(OC2CCCc3c(C(F)(F)F)nn(-c4cccc(C(=O)N(C)c5ccc6c(c5)OC(F)(F)O6)c4)c32)ccc1C(=O)O (stereo not shown) [Compound 176, 4-[[1-[3-[(2,2-Difluoro-1,3-benzodioxol-5-yl)-methyl-carbamoyl]phenyl]-3-(trifluoromethyl)-4,5,6,7-tetrahydroindazol-7-yl]oxy]-2-methyl-benzoic acid] | < 1 µM
5 | CN(C(=O)c1cccc(-n2nc(C(F)(F)F)c3c2C(Oc2cncc(C(=O)O)c2)CCC3)c1)c1ccc2c(c1)OC(F)(F)O2 (stereo not shown) [Compound 178, 5-[[1-[3-[(2,2-Difluoro-1,3-benzodioxol-5-yl)-methyl-carbamoyl]phenyl]-3-(trifluoromethyl)-4,5,6,7-tetrahydroindazol-7-yl]oxy]pyridine-3-carboxylic acid] | < 1 µM
6 | CN(C(=O)c1cccc(-n2nc(C(F)(F)F)c3c2C(Oc2ccc(C(=O)O)cn2)CCC3)c1)c1ccc2c(c1)OC(F)(F)O2 (stereo not shown) [Compound 180, 6-[[1-[3-[(2,2-Difluoro-1,3-benzodioxol-5-yl)-methyl-carbamoyl]phenyl]-3-(trifluoromethyl)-4,5,6,7-tetrahydroindazol-7-yl]oxy]pyridine-3-carboxylic acid] | < 1 µM
7 | CN(C(=O)c1cccc(-n2nc(C(F)(F)F)c3c2C(Oc2cc(C(=O)O)ccn2)CCC3)c1)c1ccc2c(c1)OC(F)(F)O2 (stereo not shown) [Compound 182, 2-[[1-[3-[(2,2-Difluoro-1,3-benzodioxol-5-yl)-methyl-carbamoyl]phenyl]-3-(trifluoromethyl)-4,5,6,7-tetrahydroindazol-7-yl]oxy]pyridine-4-carboxylic acid] | < 1 µM
8 | CN(C(=O)c1cccc(-n2nc(C(F)(F)F)c3c2C(Oc2ccc(C(=O)O)cc2)COC3)c1)c1ccc2c(c1)OC(F)(F)O2 (stereo not shown) [Compound 202, 4-[[1-[3-[(2,2-Difluoro-1,3-benzodioxol-5-yl)-methyl-carbamoyl]phenyl]-3-(trifluoromethyl)-6,7-dihydro-4H-pyrano[4,3-c]pyrazol-7-yl]oxy]benzoic acid] | < 1 µM
9 | O=C(O)c1ccc(OC2CCCc3c(C(F)(F)F)nn(-c4cccc(C(=O)Nc5ccc6c(c5)OC(F)(F)O6)c4)c32)cc1 (stereo not shown) [Compound 253, 4-[[1-[3-[(2,2-Difluoro-1,3-benzodioxol-5-yl)carbamoyl]phenyl]-3-(trifluoromethyl)-4,5,6,7-tetrahydroindazol-7-yl]oxy]benzoic acid] | > 2 µM
10 | CN1Cc2c(C(F)(F)F)nn(-c3cccc(C(=O)N(C)c4ccc5c(c4)OC(F)(F)O5)c3)c2C(Oc2ccc(C(=O)O)cc2)C1 (stereo not shown) [Compound 274, Ammonium 4-[[1-[3-[(2,2-difluoro-1,3-benzodioxol-5-yl)-methyl-carbamoyl]phenyl]-5-methyl-3-(trifluoromethyl)-6,7-dihydro-4H-pyrazolo[4,3-c]pyridin-7-yl]oxy]benzoate] | < 1 µM
